Results: PMC9186362, “Design and biological evaluation of substituted 5,7-dihydro-6H-indolo[2,3-c]quinolin-6-one as novel selective Haspin inhibitors” (Journal of Enzyme Inhibition and Medicinal Chemistry, 2022)

Key:
Test in all cases: SelectScreen ZLYTE
Format in all cases: biochemical
SRC N1 = SRC N1 (Homo sapiens, UniProt P12931); conditions: ATP Km, read-out: Percentage of inhibition
In short: (§1)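 Here 1 μM of inhibitor is profiled against a large kinase collection, and the extent of enzyme inhibition is stated as a percentage.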

MAP3K19 (YSK4) = target: T1, MAP3K19 (YSK4) (Homo sapiens, UniProt Q56UN5); conditions: ATP Km, read-out: Percentage of inhibition
T1 construct: purchased Life Technologies (SelectScreen Whole Panel)
In short: as §1

PAK2 (PAK65) = PAK2 (PAK65) (Homo sapiens, UniProt Q13177); conditions: ATP Km, read-out: Percentage of inhibition
In short: as §1

FES (FPS) = target: T2, FES (FPS) (Homo sapiens, UniProt P07332); conditions: ATP Km, read-out: Percentage of inhibition
T2 construct: purchased Life Technologies (SelectScreen service)
In short: as §1

BRAF = target: T3, BRAF (Homo sapiens, UniProt P15056); conditions: ATP 100 µM, read-out: Percentage of inhibition
T3 construct: purchased Life Technologies (SelectScreen Whole Panel)
In short: as §1

MAP4K5 (KHS1) = target: T4, MAP4K5 (KHS1) (Homo sapiens, UniProt Q9Y4K4); conditions: ATP Km, read-out: Percentage of inhibition
T4 construct: purchased Life Technologies (SelectScreen service)
T4 sequence (Q9Y4K4 whole entry): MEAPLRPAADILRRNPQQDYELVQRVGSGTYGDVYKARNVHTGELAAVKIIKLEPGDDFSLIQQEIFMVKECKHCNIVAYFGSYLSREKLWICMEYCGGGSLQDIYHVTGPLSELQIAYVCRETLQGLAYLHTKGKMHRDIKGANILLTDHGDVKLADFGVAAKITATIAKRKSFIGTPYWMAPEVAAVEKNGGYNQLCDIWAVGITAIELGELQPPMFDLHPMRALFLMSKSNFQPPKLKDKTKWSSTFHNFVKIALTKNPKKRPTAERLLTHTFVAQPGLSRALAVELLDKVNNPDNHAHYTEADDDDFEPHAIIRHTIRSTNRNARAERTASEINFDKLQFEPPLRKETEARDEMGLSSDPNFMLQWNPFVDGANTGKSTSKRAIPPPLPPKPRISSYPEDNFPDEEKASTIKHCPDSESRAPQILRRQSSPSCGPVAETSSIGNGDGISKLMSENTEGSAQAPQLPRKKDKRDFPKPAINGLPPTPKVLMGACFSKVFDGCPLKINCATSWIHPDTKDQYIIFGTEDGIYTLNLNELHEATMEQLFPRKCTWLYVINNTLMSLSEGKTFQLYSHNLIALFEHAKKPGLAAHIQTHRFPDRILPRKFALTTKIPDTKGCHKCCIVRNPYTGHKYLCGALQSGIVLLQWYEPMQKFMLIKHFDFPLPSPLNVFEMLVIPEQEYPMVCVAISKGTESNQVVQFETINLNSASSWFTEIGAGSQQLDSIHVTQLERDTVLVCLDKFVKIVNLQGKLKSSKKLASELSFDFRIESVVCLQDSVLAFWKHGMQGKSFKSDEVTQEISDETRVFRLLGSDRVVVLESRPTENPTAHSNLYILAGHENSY
In short: as §1

FGFR2 = target: T5, FGFR2 (Homo sapiens, UniProt P21802); conditions: ATP Km, read-out: Percentage of inhibition
T5 construct: purchased Life Technologies
T5 sequence (P21802 22-821): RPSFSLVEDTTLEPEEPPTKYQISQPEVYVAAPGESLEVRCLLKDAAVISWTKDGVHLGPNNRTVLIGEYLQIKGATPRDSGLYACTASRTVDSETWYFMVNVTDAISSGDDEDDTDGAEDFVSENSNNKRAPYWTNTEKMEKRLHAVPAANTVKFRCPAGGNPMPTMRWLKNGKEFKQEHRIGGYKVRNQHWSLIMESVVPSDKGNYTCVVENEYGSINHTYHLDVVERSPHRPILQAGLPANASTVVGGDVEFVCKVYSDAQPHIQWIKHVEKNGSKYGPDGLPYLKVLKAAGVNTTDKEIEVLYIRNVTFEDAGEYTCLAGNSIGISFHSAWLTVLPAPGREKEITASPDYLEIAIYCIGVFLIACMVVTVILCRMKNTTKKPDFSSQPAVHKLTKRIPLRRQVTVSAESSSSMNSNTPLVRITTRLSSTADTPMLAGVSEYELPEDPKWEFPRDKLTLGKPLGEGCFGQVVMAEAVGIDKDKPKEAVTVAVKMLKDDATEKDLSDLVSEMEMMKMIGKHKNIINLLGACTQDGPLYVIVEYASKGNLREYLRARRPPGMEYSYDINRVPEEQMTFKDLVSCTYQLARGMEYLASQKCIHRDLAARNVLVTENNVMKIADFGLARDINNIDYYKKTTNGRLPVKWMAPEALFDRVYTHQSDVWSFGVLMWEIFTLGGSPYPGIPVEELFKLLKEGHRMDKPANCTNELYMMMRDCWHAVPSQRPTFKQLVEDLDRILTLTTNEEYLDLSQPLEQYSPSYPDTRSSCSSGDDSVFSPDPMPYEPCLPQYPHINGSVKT
In short: as §1

NTRK2 (TRKB) = target: T6, NTRK2 (TRKB) (Homo sapiens, UniProt Q16620); conditions: ATP Km, read-out: Percentage of inhibition
T6 construct: purchased Life Technologies (SelectScreen service)
In short: as §1

BLK = target: T7, BLK (Homo sapiens, UniProt P51451); conditions: ATP Km, read-out: Percentage of inhibition
T7 construct: purchased Life Technologies (SelectScreen service)
In short: as §1

FRK (PTK5) = target: T8, FRK (PTK5) (Homo sapiens, UniProt P42685); conditions: ATP Km, read-out: Percentage of inhibition
T8 construct: purchased Life Technologies
In short: as §1

CDK17/cyclin Y = CDK17/cyclin Y (Homo sapiens, UniProt Q00537); conditions: ATP Km, read-out: Percentage of inhibition
In short: as §1

MARK4 = target: T9, MARK4 (Homo sapiens, UniProt Q96L34); conditions: ATP Km, read-out: Percentage of inhibition
T9 construct: purchased Life Technologies
In short: as §1

MELK = MELK (Homo sapiens, UniProt Q14680); conditions: ATP Km, read-out: Percentage of inhibition
In short: as §1

CDC42 BPG (MRCKG) = target: T10, CDC42 BPG (MRCKG) (Homo sapiens, UniProt Q6DT37); conditions: ATP Km, read-out: Percentage of inhibition
T10 construct: purchased Life Technologies (SelectScreen Whole Panel service)
T10 sequence (Q6DT37 whole entry): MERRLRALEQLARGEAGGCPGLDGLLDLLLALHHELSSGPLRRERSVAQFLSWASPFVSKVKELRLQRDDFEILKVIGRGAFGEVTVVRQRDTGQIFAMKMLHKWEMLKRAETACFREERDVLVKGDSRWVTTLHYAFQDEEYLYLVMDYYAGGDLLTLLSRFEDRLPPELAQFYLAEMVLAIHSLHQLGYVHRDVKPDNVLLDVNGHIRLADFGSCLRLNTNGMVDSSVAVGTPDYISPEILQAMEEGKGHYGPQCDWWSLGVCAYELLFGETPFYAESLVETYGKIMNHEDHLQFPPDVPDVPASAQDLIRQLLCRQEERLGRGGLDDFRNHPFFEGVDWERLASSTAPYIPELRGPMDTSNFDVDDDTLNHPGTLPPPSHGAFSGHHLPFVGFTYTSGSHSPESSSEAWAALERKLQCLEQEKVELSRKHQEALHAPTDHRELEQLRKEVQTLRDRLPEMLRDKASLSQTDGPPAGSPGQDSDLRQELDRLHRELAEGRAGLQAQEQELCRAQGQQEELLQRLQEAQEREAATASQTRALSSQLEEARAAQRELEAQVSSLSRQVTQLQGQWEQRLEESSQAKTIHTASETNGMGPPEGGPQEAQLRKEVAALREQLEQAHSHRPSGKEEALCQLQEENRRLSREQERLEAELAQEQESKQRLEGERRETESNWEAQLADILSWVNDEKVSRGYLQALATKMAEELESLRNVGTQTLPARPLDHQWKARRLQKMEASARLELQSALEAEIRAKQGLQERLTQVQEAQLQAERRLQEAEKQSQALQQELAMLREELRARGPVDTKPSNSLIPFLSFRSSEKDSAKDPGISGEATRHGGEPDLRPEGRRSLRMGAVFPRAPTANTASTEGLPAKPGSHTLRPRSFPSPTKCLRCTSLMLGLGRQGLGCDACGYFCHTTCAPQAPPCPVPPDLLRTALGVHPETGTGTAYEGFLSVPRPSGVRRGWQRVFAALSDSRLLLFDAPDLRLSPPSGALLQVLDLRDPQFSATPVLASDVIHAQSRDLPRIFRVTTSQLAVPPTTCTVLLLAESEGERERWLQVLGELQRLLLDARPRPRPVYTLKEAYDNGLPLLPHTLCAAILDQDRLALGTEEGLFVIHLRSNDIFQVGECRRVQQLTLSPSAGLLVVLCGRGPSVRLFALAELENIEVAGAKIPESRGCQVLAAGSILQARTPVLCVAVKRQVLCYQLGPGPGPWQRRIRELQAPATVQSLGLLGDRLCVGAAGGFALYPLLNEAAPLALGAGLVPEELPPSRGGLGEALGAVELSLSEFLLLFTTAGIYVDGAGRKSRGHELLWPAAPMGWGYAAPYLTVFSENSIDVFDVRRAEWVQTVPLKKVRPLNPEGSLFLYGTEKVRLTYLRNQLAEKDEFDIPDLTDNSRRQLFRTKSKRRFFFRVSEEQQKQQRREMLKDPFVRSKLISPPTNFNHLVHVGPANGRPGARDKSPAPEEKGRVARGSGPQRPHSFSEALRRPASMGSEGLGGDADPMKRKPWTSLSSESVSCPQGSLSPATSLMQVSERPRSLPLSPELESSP
In short: as §1

PASK = target: T11, PASK (Homo sapiens, UniProt Q96RG2); conditions: ATP Km, read-out: Percentage of inhibition
T11 construct: purchased Life Technologies (SelectScreen Whole Panel)
In short: as §1

PIM2 = target: T12, PIM2 (Homo sapiens, UniProt Q9P1W9); conditions: ATP Km, read-out: Percentage of inhibition
T12 construct: purchased Life Technologies (SelectScreen Whole Panel service)
In short: as §1

IKBKB (IKK beta) = target: T13, IKBKB (IKK beta) (Homo sapiens, UniProt O14920); conditions: ATP Km, read-out: Percentage of inhibition
T13 construct: purchased Life Technologies (SelectScreen Whole Panel)
In short: as §1

RET = target: T14, RET (Homo sapiens, UniProt P07949); conditions: ATP Km, read-out: Percentage of inhibition
T14 construct: purchased Life Technologies
In short: as §1

MAPK11 (p38 beta) = target: T15, MAPK11 (p38 beta) (Homo sapiens, UniProt Q15759); conditions: ATP Km, read-out: Percentage of inhibition
T15 construct: purchased Life Technologies (SelectScreen)
In short: as §1

AKT3 (PKB gamma) = target: T16, AKT3 (PKB gamma) (Homo sapiens, UniProt Q9Y243); conditions: ATP Km, read-out: Percentage of inhibition
T16 construct: purchased Life Technologies
In short: as §1

MAPKAPK5 (PRAK) = MAPKAPK5 (PRAK) (Homo sapiens, UniProt Q8IW41); conditions: ATP Km, read-out: Percentage of inhibition
In short: as §1

ERBB4 (HER4) = ERBB4 (HER4) (Homo sapiens, UniProt Q15303); conditions: ATP Km, read-out: Percentage of inhibition
In short: as §1

FGFR3 V555M = target: T17, FGFR3 V555M (Homo sapiens, UniProt P22607, V555M); conditions: ATP Km, read-out: Percentage of inhibition
T17 construct: purchased Life Technologies (SelectScreen Whole Panel service)
T17 sequence (P22607 23-806 V555M): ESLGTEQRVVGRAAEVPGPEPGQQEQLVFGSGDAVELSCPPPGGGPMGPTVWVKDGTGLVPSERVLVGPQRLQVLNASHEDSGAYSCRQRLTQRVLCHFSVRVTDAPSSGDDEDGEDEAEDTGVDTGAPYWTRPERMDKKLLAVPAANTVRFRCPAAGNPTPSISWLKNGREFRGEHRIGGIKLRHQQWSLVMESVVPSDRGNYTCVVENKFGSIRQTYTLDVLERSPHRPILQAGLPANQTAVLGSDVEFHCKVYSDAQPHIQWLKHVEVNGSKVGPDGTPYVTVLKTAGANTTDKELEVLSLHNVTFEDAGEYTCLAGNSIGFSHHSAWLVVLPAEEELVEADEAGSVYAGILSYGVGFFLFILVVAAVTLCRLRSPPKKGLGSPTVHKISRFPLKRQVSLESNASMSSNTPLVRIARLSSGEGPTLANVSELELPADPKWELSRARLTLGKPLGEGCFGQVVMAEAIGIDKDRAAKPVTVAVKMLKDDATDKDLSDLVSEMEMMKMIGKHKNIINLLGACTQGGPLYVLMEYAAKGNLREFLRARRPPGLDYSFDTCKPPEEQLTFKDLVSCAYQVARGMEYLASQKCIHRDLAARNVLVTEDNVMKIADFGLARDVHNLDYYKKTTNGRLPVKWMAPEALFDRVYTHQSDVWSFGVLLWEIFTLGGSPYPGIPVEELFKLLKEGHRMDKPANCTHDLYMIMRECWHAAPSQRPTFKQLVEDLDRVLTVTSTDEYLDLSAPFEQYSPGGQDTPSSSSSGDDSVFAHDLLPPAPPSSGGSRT
In short: as §1

MARK1 (MARK) = target: T18, MARK1 (MARK) (Homo sapiens, UniProt Q9P0L2); conditions: ATP Km, read-out: Percentage of inhibition
T18 construct: purchased Life Technologies (SelectScreen)
In short: as §1

LTK (TYK1) = target: T19, LTK (TYK1) (Homo sapiens, UniProt P29376); conditions: ATP Km, read-out: Percentage of inhibition
T19 construct: purchased Life Technologies (SelectScreen Whole Panel service)
In short: as §1

[1] = target: CSNK1E (CK1 epsilon) R178C (Homo sapiens, UniProt P49674, R178C); conditions: ATP Km, read-out: Percentage of inhibition
In short: as §1

PRKD1 (PKC mu) = target: T20, PRKD1 (PKC mu) (Homo sapiens, UniProt Q15139); conditions: ATP Km, read-out: Percentage of inhibition
T20 construct: purchased Life Technologies (SelectScreen Whole Panel service)
In short: as §1

PAK6 = target: T21, PAK6 (Homo sapiens, UniProt Q9NQU5); conditions: ATP Km, read-out: Percentage of inhibition
T21 construct: purchased Life Technologies
In short: as §1

RPS6KA4 (MSK2) = target: T22, RPS6KA4 (MSK2) (Homo sapiens, UniProt O75676); conditions: ATP Km, read-out: Percentage of inhibition
T22 construct: purchased Life Technologies
In short: as §1

[2] = target: MAPK14 (p38 alpha) Direct (Homo sapiens, UniProt Q16539); conditions: ATP Km, read-out: Percentage of inhibition
In short: as §1

EGFR (ErbB1) = target: T23, EGFR (ErbB1) (Homo sapiens, UniProt P00533); conditions: ATP Km, read-out: Percentage of inhibition
T23 construct: purchased Life Technologies
In short: as §1

MAPK14 (p38 alpha) = target: T24, MAPK14 (p38 alpha) (Homo sapiens, UniProt Q16539); conditions: ATP 100 µM, read-out: Percentage of inhibition
T24 construct: purchased Life Technologies (SelectScreen Whole Panel service)
In short: as §1

IGF1R = IGF1R (Homo sapiens, UniProt P08069); conditions: ATP Km, read-out: Percentage of inhibition
In short: as §1

HIPK1 (Myak) = HIPK1 (Myak) (Homo sapiens, UniProt Q86Z02); conditions: ATP Km, read-out: Percentage of inhibition
In short: as §1

MAP4K2 (GCK) = target: T25, MAP4K2 (GCK) (Homo sapiens, UniProt Q12851); conditions: ATP Km, read-out: Percentage of inhibition
T25 construct: purchased Life Technologies (SelectScreen Whole Panel service)
T25 sequence (Q12851 whole entry): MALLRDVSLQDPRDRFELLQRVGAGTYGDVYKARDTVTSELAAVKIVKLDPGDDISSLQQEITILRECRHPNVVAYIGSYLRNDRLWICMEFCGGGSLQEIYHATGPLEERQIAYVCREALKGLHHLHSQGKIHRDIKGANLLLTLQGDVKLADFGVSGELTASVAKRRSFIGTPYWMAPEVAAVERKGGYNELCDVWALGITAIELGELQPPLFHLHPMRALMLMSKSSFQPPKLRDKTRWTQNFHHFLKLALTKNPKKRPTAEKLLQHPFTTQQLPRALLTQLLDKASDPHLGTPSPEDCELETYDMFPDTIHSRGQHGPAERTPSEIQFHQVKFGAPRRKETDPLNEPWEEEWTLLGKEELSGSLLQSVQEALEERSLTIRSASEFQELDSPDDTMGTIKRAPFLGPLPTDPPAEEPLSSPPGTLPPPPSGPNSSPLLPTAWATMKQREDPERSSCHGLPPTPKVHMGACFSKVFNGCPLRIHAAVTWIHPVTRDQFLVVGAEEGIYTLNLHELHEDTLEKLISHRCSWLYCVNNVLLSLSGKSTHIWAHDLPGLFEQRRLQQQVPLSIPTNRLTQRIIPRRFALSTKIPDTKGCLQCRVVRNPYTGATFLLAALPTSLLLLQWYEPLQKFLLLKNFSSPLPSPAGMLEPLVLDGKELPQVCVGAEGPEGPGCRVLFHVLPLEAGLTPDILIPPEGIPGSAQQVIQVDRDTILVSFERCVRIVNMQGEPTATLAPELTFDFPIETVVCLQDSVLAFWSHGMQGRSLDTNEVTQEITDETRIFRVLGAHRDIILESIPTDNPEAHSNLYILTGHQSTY
In short: as §1

ABL1 Y253F = target: T26, ABL1 Y253F (Homo sapiens, UniProt P00519, Y253F); conditions: ATP Km, read-out: Percentage of inhibition
T26 construct: purchased Life Technologies (SelectScreen Whole Panel)
In short: as §1

PRKG1 = target: T27, PRKG1 (Homo sapiens, UniProt Q13976); conditions: ATP Km, read-out: Percentage of inhibition
T27 construct: purchased Life Technologies (SelectScreen Whole Panel service)
In short: as §1

CAMK4 (CaMKIV) = target: T28, CAMK4 (CaMKIV) (Homo sapiens, UniProt Q16566); conditions: ATP Km, read-out: Percentage of inhibition
T28 construct: purchased Life Technologies
In short: as §1

Work on `COc1ccc2[nH]c3c(=O)[nH]c4ccc(O)cc4c3c2c1` [Compound 55, 2-Hydroxy-10-methoxy-5,7-dihydro-6H-indolo[2,3-c]quinolin-6-one] yielded an inhibition at 1 µM (SRC N1) of 59%, an inhibition at 1 µM (MAP3K19 (YSK4)) of 49% and an inhibition at 1 µM (PAK2 (PAK65)) of 6%. For the same compound, the inhibition at 1 µM (FES (FPS)) was 25%, the inhibition at 1 µM (BRAF) was 100% and the inhibition at 1 µM (MAP4K5 (KHS1)) was 90%. It also gave an inhibition at 1 µM (FGFR2) of 42%, an inhibition at 1 µM (NTRK2 (TRKB)) of 80% and an inhibition at 1 µM (BLK) of 86%. The inhibition at 1 µM (FRK (PTK5)) was 33%, the inhibition at 1 µM (CDK17/cyclin Y) was 20% and the inhibition at 1 µM (MARK4) was 31%. The inhibition at 1 µM (MELK) was 57%, the inhibition at 1 µM (CDC42 BPG (MRCKG)) was 12% and the inhibition at 1 µM (PASK) was 49%. For the same compound, the inhibition at 1 µM (PIM2) was 18%, the inhibition at 1 µM (IKBKB (IKK beta)) was 55% and the inhibition at 1 µM (RET) was 97%. For the same compound, the inhibition at 1 µM (MAPK11 (p38 beta)) was 8%, the inhibition at 1 µM (AKT3 (PKB gamma)) was 3% and the inhibition at 1 µM (MAPKAPK5 (PRAK)) was 22%. For the same compound, the inhibition at 1 µM (ERBB4 (HER4)) was 20%, the inhibition at 1 µM (FGFR3 V555M) was 46% and the inhibition at 1 µM (MARK1 (MARK)) was 9%. For the same compound, the inhibition at 1 µM (LTK (TYK1)) was 16%, the inhibition at 1 µM [1] was 70% and the inhibition at 1 µM (PRKD1 (PKC mu)) was 45%. It also gave an inhibition at 1 µM (PAK6) of 4%, an inhibition at 1 µM (RPS6KA4 (MSK2)) of 39% and an inhibition at 1 µM [2] of 6%. For the same compound, the inhibition at 1 µM (EGFR (ErbB1)) was 4%, the inhibition at 1 µM (MAPK14 (p38 alpha)) was 12% and the inhibition at 1 µM (IGF1R) was 13%. The inhibition at 1 µM (HIPK1 (Myak)) was 58%, the inhibition at 1 µM (MAP4K2 (GCK)) was 47% and the inhibition at 1 µM (ABL1 Y253F) was 55%. It also gave an inhibition at 1 µM (PRKG1) of 11% and an inhibition at 1 µM (CAMK4 (CaMKIV)) of 41%.
